Source: the CheMixHub viscosity set
± gives the uncertainty stated by the source.

Experiment: xn = mol fraction of the nth substance listed

CCCCCCCCCCC + CCCCCCC
viscosity [mPa·s]
Conditions | 100 kPa | 101.33 kPa
297.15 K, x2 = 0.5 | – | 0.6901 ± 0.0097
298.15 K, x2 = 0.1084 | – | 0.9818 ± 0.012
298.15 K, x2 = 0.2093 | – | 0.8983 ± 0.011
298.15 K, x2 = 0.3019 | – | 0.8173 ± 0.01
298.15 K, x2 = 0.4051 | – | 0.7452 ± 0.0097
298.15 K, x2 = 0.5067 | – | 0.672 ± 0.0089
298.15 K, x2 = 0.6076 | – | 0.6072 ± 0.0082
298.15 K, x2 = 0.7041 | – | 0.5479 ± 0.0076
298.15 K, x2 = 0.8052 | – | 0.4894 ± 0.007
298.15 K, x2 = 0.8998 | – | 0.4335 ± 0.0063
302.98 K, x2 = 0.8 | 0.4886 ± 0.021 | –
303.09 K, x2 = 0.5 | 0.6364 ± 0.0091 | 0.6364 ± 0.0091
312.85 K, x2 = 0.5 | – | 0.563 ± 0.0083
323.04 K, x2 = 0.5 | 0.5009 ± 0.0077 | 0.5009 ± 0.0077

OCCCl + CCCCCCO
viscosity [mPa·s], 101.33 kPa
Conditions | x1 = 0.097 | x1 = 0.1953 | x1 = 0.2962 | x1 = 0.3953 | x1 = 0.5314 | x1 = 0.5962 | x1 = 0.7121 | x1 = 0.7968 | x1 = 0.8982
298.15 K | 3.93 ± 0.087 | 3.7 ± 0.082 | 3.544 ± 0.079 | 3.406 ± 0.076 | 3.241 ± 0.073 | 3.175 ± 0.071 | 3.057 ± 0.069 | 2.983 ± 0.067 | 2.921 ± 0.066
303.15 K | 3.33 ± 0.074 | 3.18 ± 0.071 | 3.068 ± 0.069 | 2.909 ± 0.066 | 2.78 ± 0.063 | 2.718 ± 0.062 | 2.615 ± 0.059 | 2.551 ± 0.058 | 2.529 ± 0.058
308.15 K | 2.824 ± 0.064 | 2.68 ± 0.061 | 2.572 ± 0.058 | 2.494 ± 0.057 | 2.38 ± 0.054 | 2.329 ± 0.053 | 2.276 ± 0.052 | 2.237 ± 0.051 | 2.208 ± 0.051

OCCCO + CC(O)CO
viscosity [mPa·s], 101 kPa
Conditions | x2 = 0.1014 | x2 = 0.2101 | x2 = 0.2999 | x2 = 0.4071 | x2 = 0.5013 | x2 = 0.5925 | x2 = 0.7113 | x2 = 0.8005 | x2 = 0.9208
298.15 K | 42.34 ± 0.45 | 42.71 ± 0.42 | – | – | 43.62 ± 0.34 | 43.82 ± 0.32 | 43.95 ± 0.29 | 43.88 ± 0.27 | –
303.15 K | – | 34.03 ± 0.33 | 34.2 ± 0.31 | 34.39 ± 0.29 | 34.49 ± 0.27 | 34.55 ± 0.25 | 34.49 ± 0.23 | 34.36 ± 0.22 | 34.11 ± 0.2
308.15 K | 27.18 ± 0.29 | 27.11 ± 0.27 | 27.05 ± 0.25 | – | – | – | 26.36 ± 0.18 | 26.06 ± 0.17 | 25.59 ± 0.15

OCCCO + C[N+](C)(C)CCO.[Cl-]
viscosity [mPa·s], 101.3 kPa
Conditions | 293.15 K | 298.15 K | 298.2 K | 303.15 K | 308.15 K | 308.2 K | 313.15 K | 318.15 K | 318.2 K | 323.15 K
x1 = 0.7509 | 69.74 ± 3 | 55.76 ± 2.3 | – | 45.4 ± 1.9 | 37.43 ± 1.6 | – | 31.35 ± 1.3 | 26.52 ± 1.1 | – | 22.62 ± 0.95
x1 = 0.8001 | 61.31 ± 2.6 | 49.49 ± 2.1 | – | 40.7 ± 1.7 | 33.88 ± 1.4 | – | 27.31 ± 1.1 | 23.03 ± 0.97 | – | 19.63 ± 0.82
x1 = 0.8328 | 57.14 ± 2.4 | 46.14 ± 1.9 | – | 37.62 ± 1.6 | 30.92 ± 1.3 | – | 25.67 ± 1.1 | 21.53 ± 0.9 | – | 18.26 ± 0.76
x1 = 0.8567 | 53.95 ± 2.2 | 42.83 ± 1.8 | – | 34.73 ± 1.5 | 28.58 ± 1.2 | – | 24.01 ± 1 | 20.38 ± 0.85 | – | 17.26 ± 0.72
x2 = 0.1667 | – | – | 49.5 ± 2.1 | – | – | 36.9 ± 1.5 | – | – | 27.6 ± 1.1 | –
x2 = 0.2 | – | – | – | 34.45 ± 0.97 | 28.87 ± 0.75 | – | 24.21 ± 0.7 | 20.52 ± 0.57 | – | 17.57 ± 0.5
x2 = 0.25 | – | – | – | 40.05 ± 1.2 | 33.17 ± 0.93 | – | 27.84 ± 0.77 | 23.62 ± 0.59 | – | 20.25 ± 0.57

CN1CCC[C@H]1c1cccnc1 + CCCCO
100 kPa
Conditions | viscosity [mPa·s]
298.15 K, x1 = 0.3931 | 3.155 ± 0.065
303.15 K, x1 = 0.7 | 3.205 ± 0.067
313.15 K, x1 = 0.1 | 1.885 ± 0.039

CCCCCCCCCCC + CCCCC
viscosity [mPa·s]
Conditions | 293.15 K | 298.15 K | 303.15 K | 308.15 K | 313.15 K | 318.15 K | 323.15 K
100 kPa, x2 = 0.1034 | 1.033 ± 0.013 | 0.957 ± 0.012 | 0.887 ± 0.011 | 0.825 ± 0.01 | 0.77 ± 0.01 | 0.721 ± 0.009 | 0.677 ± 0.008
100 kPa, x2 = 0.2018 | 0.906 ± 0.011 | 0.842 ± 0.011 | 0.784 ± 0.01 | 0.732 ± 0.009 | 0.686 ± 0.009 | 0.645 ± 0.008 | 0.607 ± 0.008
100 kPa, x2 = 0.3079 | 0.774 ± 0.01 | 0.723 ± 0.009 | 0.676 ± 0.008 | 0.634 ± 0.008 | 0.597 ± 0.007 | 0.563 ± 0.007 | 0.531 ± 0.007
100 kPa, x2 = 0.3996 | 0.689 ± 0.009 | 0.645 ± 0.008 | 0.606 ± 0.008 | 0.571 ± 0.007 | 0.538 ± 0.007 | 0.509 ± 0.006 | 0.483 ± 0.006
100 kPa, x2 = 0.5027 | 0.594 ± 0.007 | 0.556 ± 0.007 | 0.523 ± 0.007 | 0.494 ± 0.006 | 0.468 ± 0.006 | 0.444 ± 0.006 | 0.422 ± 0.005
100 kPa, x2 = 0.6106 | 0.488 ± 0.006 | 0.461 ± 0.006 | 0.437 ± 0.006 | 0.415 ± 0.005 | 0.395 ± 0.005 | 0.376 ± 0.005 | 0.366 ± 0.005
100 kPa, x2 = 0.702 | 0.427 ± 0.005 | 0.405 ± 0.005 | 0.386 ± 0.005 | 0.368 ± 0.005 | 0.358 ± 0.005 | – | –
100 kPa, x2 = 0.8003 | 0.359 ± 0.005 | 0.341 ± 0.004 | 0.324 ± 0.004 | 0.308 ± 0.004 | – | – | –
100 kPa, x2 = 0.8988 | 0.287 ± 0.004 | 0.273 ± 0.004 | 0.259 ± 0.003 | – | – | – | –
101.33 kPa, x2 = 0.0962 | – | 0.9653 ± 0.012 | – | – | – | – | –
101.33 kPa, x2 = 0.1826 | – | 0.8798 ± 0.011 | – | – | – | – | –
101.33 kPa, x2 = 0.274 | – | 0.7841 ± 0.01 | – | – | – | – | –
101.33 kPa, x2 = 0.368 | – | 0.6944 ± 0.0093 | – | – | – | – | –
101.33 kPa, x2 = 0.4834 | – | 0.5825 ± 0.0081 | – | – | – | – | –
101.33 kPa, x2 = 0.5738 | – | 0.5061 ± 0.0073 | – | – | – | – | –
101.33 kPa, x2 = 0.6599 | – | 0.4333 ± 0.0065 | – | – | – | – | –
101.33 kPa, x2 = 0.7461 | – | 0.3731 ± 0.0058 | – | – | – | – | –
101.33 kPa, x2 = 0.8967 | – | 0.2805 ± 0.0048 | – | – | – | – | –

NC=O + CC(C)CO
308 K, 101 kPa
Conditions | viscosity [mPa·s]
x1 = 0.1092 | 2.344
x1 = 0.2053 | 2.444
x1 = 0.3677 | 2.574
x1 = 0.4992 | 2.682
x1 = 0.6079 | 2.757
x1 = 0.6993 | 2.788
x1 = 0.7772 | 2.782
x1 = 0.844 | 2.744
x1 = 0.9029 | 2.701

CC(C)C#N + Cc1ccc(C)cc1
viscosity [mPa·s], 101 kPa
Conditions | x2 = 0.1003 | x2 = 0.2009 | x2 = 0.3014 | x2 = 0.4041 | x2 = 0.4978 | x2 = 0.6013 | x2 = 0.7001 | x2 = 0.8003 | x2 = 0.8998
303.15 K | 0.474 ± 0.008 | 0.482 ± 0.008 | 0.484 ± 0.008 | 0.498 ± 0.008 | 0.505 ± 0.008 | 0.519 ± 0.008 | 0.531 ± 0.008 | 0.55 ± 0.008 | 0.558 ± 0.008
308.15 K | 0.444 ± 0.008 | 0.453 ± 0.008 | 0.453 ± 0.008 | 0.461 ± 0.008 | 0.473 ± 0.008 | 0.485 ± 0.008 | 0.495 ± 0.008 | 0.507 ± 0.008 | 0.519 ± 0.008

OCCCl + CCOC(C)=O
viscosity [mPa·s], 101.33 kPa
Conditions | x1 = 0.1033 | x1 = 0.2006 | x1 = 0.3231 | x1 = 0.4048 | x1 = 0.5015 | x1 = 0.6007 | x1 = 0.7022 | x1 = 0.8 | x1 = 0.9
298.15 K | 0.485 ± 0.004 | 0.542 ± 0.004 | 0.643 ± 0.005 | 0.729 ± 0.005 | 0.864 ± 0.006 | 1.065 ± 0.008 | 1.326 ± 0.01 | 1.689 ± 0.013 | 2.242 ± 0.017
303.15 K | 0.454 ± 0.004 | 0.51 ± 0.004 | 0.601 ± 0.005 | 0.679 ± 0.005 | 0.8 ± 0.006 | 0.967 ± 0.007 | 1.2 ± 0.009 | 1.517 ± 0.011 | 1.98 ± 0.014
308.15 K | 0.43 ± 0.003 | 0.482 ± 0.004 | 0.565 ± 0.004 | 0.635 ± 0.005 | 0.746 ± 0.005 | 0.894 ± 0.006 | 1.098 ± 0.008 | 1.369 ± 0.009 | 1.776 ± 0.012
